Test results as given in US20240217947A1, “Morpholinylquinazoline Compound, Pharmaceutical compositions thereof and Use Thereof” (SHANGHAI YINGLI PHARMACEUTICAL CO., LTD, priority 2022, published 2024).

How the values were obtained:
HDAC6 = biological target: T1, HDAC6 (Homo sapiens, UniProt Q9UBN7); assay: HDAC6 enzyme activity inhibition IC50 evaluation experiment; type: biochemical; settings: HDAC6 5 nM, acetylated peptide 11 μM, trypsin, fluorescence
T1 sequence (Q9UBN7 1-1215): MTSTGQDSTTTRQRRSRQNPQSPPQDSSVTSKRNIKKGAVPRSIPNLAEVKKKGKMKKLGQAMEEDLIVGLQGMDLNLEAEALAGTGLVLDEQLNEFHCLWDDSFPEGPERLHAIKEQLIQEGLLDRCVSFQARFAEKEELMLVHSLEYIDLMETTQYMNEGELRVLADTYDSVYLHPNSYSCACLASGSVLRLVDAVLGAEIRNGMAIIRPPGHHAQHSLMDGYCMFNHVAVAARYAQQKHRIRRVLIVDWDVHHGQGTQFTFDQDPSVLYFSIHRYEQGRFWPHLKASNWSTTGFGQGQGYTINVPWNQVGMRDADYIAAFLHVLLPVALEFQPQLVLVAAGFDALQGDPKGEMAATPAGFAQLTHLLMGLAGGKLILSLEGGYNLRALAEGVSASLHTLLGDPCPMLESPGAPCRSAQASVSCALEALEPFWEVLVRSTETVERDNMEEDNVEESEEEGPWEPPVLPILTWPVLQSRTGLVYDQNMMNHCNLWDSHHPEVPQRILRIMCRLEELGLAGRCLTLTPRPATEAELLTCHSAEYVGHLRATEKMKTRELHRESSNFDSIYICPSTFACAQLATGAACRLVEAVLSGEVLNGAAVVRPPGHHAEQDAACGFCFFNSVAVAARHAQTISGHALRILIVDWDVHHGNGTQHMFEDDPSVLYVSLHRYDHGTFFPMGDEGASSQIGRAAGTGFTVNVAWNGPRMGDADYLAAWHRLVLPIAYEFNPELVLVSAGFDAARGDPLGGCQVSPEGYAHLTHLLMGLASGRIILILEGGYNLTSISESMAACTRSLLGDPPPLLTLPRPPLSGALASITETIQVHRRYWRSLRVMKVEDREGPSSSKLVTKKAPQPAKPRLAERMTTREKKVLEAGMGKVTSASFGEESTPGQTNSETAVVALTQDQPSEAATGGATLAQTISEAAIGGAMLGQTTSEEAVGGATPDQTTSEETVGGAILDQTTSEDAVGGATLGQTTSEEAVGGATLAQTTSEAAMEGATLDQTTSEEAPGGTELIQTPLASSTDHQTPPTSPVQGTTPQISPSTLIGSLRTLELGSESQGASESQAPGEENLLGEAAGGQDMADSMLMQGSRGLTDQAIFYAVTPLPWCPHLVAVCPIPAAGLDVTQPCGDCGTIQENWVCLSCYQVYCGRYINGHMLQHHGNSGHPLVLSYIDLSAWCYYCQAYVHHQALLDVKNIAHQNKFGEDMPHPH
Experimental: (§1) Effect Example 2 HDAC1, HDAC2, HDAC3, HDAC6 enzyme activity inhibition IC50 evaluation experiment
(§2) Buffer solution (50 mM Tris 7.5, 0.01% Tween-20, 50 mM NaCl) was prepared according to the kit instructions, and the enzyme solution and substrate solution (acetylated peptide with the addition of trypsin) were prepared using the buffer solution. The test compound samples were dissolved with DMSO and added to the screening system at a certain starting concentration such as 10 μM, 3-fold dilution, while setting up a DMSO control and no-enzyme control. The enzyme reaction system includes: buffer, enzyme [final concentration: HDAC1=10 nM, HDAC2=4 nM, HDAC3=7 nM, HDAC6=5 nM], substrate (acetylated peptide) [final concentration: Peptide(HDAC1)=8 μM, Peptide(HDAC2)=10 μM, Peptide(HDAC3)=5 μM, Peptide(HDAC6)=11 μM], trypsin [final concentration: Trypsin(HDAC1,2,3)=0.05 μM, Trypsin(HDAC6)=0.1 μM], etc. The enzymes and compounds were reacted at room temperature for 15 min. After adding the substrate and Trypsin, centrifugation was performed for 1 min, and the fluorescence signal data (excitation wavelength 355 nM/emission wavelength 460 nm) was read continuously for 60 min using Envision, and the linear reaction segment was selected to obtain the slope and thus calculate the inhibition rate at that concentration. The IC50 value was obtained by fitting the curve using the formula Y=Bottom+(Top-Bottom)/(1+(IC50/X)^HillSlope).

PI3Kδ = PI3Kδ (Homo sapiens, UniProt O00329); assay: PI3Kδ enzyme activity inhibition IC50 evaluation assay (ADP-Glo Kinase Assay); type: biochemical; settings: ATP 25 μM, PIP2 50 μg/mL, 1 hour room temperature, read-out: PI3K-δ IC50
PI3Kδ, sequence (O00329 whole entry, species assumed): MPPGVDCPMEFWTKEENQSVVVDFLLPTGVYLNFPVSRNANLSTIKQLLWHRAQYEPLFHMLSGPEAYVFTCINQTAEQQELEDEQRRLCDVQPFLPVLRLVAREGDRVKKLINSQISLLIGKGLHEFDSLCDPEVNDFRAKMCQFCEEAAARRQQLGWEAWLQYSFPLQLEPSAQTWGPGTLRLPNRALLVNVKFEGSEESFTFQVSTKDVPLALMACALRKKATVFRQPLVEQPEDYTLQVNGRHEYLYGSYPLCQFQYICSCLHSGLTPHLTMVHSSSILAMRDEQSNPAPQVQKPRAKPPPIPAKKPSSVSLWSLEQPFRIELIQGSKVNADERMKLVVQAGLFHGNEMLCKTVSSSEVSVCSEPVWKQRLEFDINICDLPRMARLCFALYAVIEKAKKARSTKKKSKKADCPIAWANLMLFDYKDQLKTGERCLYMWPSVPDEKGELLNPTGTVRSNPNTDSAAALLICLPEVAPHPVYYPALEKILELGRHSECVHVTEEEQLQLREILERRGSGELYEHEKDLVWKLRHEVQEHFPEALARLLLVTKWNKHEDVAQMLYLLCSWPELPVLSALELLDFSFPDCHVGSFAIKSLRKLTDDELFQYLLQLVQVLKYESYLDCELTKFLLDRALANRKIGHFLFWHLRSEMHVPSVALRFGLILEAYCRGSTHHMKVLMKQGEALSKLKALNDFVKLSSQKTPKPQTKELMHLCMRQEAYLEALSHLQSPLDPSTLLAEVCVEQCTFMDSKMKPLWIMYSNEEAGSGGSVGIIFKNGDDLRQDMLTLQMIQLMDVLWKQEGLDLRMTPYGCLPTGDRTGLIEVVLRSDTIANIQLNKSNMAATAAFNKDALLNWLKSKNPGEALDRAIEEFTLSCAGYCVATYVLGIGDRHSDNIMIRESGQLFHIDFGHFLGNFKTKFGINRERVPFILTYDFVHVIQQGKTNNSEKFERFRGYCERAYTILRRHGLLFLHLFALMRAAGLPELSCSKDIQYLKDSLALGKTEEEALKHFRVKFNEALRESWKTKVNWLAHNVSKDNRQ
PI3Kδ, sequence (P27986 whole entry partner, species assumed): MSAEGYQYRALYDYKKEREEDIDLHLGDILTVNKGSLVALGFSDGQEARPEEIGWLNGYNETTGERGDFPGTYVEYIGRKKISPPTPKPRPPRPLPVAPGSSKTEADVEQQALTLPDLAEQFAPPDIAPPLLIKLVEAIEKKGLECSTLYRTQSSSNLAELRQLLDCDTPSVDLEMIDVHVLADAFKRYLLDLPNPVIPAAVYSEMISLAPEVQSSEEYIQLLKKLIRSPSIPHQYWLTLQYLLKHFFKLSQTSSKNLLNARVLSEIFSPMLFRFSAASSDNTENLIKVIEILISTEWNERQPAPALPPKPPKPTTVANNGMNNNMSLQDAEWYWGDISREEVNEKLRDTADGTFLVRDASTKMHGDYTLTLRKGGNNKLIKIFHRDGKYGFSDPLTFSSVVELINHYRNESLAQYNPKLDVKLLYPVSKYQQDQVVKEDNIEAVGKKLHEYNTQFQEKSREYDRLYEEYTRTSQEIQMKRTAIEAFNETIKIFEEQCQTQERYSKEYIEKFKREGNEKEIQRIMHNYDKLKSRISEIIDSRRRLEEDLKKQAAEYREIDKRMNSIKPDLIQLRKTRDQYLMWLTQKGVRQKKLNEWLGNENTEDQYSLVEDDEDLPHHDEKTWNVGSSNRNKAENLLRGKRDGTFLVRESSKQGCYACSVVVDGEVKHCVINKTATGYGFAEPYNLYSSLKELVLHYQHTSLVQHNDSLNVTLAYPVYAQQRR
Experimental: (§3) Effec Example 1 IC50 evaluation assay for PI3Kα, PI3Kδ, PI3Kβ and PI3Kγ enzyme activity inhibition
(§4) The experiment was performed using the ADP-Glo Kinase Assay kit, following the instructions. The following buffer solutions were prepared: 50 mM HEPES, pH 7.5, 3 mM MgCl2, 1 mM EGTA, 100 mM NaCl, 0.03% CHAPS, 2 mM DTT. The test compound samples were dissolved in DMSO and added to the screening system at a certain starting concentration such as 10 μM, 3-fold dilution, while setting up both DMSO control and no kinase control. The optimal concentrations of PI3Kα, PI3Kδ, PI3Kβ and PI3Kγ enzymes, substrate (PIP2) and ATP were prepared in buffer. The enzyme reaction system included: buffer, ATP 25 μM, kinase substrate (PIP2, 50 μg/mL), kinases [PI3Kα (0.15 μg/mL), PI3Kδ (1.2 μg/mL), PI3Kβ (0.3 μg/mL) and PI3Kγ (2.5 μg/mL)], etc. The reaction system was reacted at room temperature for 1 hour. The reaction was terminated by adding a termination reagent (ADP-Glo reagent, 5 μL), and the ADP content in the system was detected using a detection reagent (Kinase Detection Reagent, 10 μL). Signal data were collected using the Envision instrument. Calculate the percentage of (%) inhibition according to the following formula: % inhibition=(DMSO control signal value−sample signal value)/(DMSO control signal value−no-kinase control signal value). The IC50 value was obtained by fitting the curve using the formula Y=Bottom+(Top-Bottom)/(1+(IC50/X)^HillSlope).

PI3Kα = PI3Kα (Homo sapiens, UniProt P42336); assay: PI3Kα enzyme activity inhibition IC50 evaluation assay (ADP-Glo Kinase Assay); type: biochemical; settings: ATP 25 μM, PIP2 50 μg/mL, 1 hour room temperature, read-out: PI3K-α IC50
PI3Kα, sequence (P42336 whole entry, species assumed): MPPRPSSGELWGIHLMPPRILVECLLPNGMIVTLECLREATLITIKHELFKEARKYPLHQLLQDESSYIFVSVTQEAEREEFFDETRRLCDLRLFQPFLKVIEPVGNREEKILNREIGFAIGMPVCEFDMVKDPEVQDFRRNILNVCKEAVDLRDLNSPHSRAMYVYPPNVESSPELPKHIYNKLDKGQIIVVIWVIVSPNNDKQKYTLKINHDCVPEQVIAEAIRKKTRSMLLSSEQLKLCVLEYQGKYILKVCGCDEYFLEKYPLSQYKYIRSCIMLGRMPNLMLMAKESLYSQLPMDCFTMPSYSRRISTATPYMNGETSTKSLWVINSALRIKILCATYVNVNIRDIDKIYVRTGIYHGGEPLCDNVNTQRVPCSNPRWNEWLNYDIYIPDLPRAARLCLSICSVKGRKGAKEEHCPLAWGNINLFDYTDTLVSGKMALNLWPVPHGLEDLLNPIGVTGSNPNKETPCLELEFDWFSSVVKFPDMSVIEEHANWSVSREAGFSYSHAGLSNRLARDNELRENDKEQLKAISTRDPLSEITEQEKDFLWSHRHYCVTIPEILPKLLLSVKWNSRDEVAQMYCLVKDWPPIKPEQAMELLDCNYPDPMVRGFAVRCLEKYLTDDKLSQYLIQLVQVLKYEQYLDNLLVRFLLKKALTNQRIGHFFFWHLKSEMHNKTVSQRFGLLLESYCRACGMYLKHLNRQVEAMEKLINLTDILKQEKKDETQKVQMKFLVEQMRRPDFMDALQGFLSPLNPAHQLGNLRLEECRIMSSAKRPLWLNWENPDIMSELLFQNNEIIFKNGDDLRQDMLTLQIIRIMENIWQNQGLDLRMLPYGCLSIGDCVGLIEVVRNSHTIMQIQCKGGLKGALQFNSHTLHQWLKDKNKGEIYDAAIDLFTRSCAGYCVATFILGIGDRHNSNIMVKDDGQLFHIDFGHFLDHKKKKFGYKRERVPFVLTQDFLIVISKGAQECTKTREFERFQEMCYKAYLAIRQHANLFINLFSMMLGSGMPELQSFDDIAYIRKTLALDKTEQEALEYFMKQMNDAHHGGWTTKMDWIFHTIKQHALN
PI3Kα, sequence (P27986 whole entry partner, species assumed): as the sequence (P27986 whole entry partner, species assumed) above
Experimental: as §3, §4

HDAC1 = HDAC1 (Homo sapiens, UniProt Q13547); assay: HDAC1 enzyme activity inhibition IC50 evaluation experiment; type: biochemical; settings: HDAC1 10 nM, acetylated peptide 8 μM, trypsin, fluorescence
HDAC1, sequence (Q13547 whole entry, species assumed): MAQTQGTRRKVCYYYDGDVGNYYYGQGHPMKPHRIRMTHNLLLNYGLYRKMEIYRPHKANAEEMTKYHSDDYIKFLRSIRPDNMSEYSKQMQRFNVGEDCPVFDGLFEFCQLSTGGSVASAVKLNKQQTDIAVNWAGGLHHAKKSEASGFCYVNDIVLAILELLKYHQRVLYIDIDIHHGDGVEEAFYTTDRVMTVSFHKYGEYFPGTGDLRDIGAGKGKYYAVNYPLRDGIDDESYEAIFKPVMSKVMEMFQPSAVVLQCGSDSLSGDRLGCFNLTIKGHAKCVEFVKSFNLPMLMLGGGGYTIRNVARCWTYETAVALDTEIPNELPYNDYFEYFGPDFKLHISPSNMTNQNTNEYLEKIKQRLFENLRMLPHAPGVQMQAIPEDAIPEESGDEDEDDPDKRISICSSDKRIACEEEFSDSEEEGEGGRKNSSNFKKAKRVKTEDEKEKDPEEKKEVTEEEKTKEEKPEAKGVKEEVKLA
Experimental: as §1, §2

HDAC2 = HDAC2 (Homo sapiens, UniProt Q92769); assay: HDAC2 enzyme activity inhibition IC50 evaluation experiment; type: biochemical; settings: HDAC2 4 nM, acetylated peptide 10 μM, trypsin, fluorescence
HDAC2, sequence (Q92769 whole entry, species assumed): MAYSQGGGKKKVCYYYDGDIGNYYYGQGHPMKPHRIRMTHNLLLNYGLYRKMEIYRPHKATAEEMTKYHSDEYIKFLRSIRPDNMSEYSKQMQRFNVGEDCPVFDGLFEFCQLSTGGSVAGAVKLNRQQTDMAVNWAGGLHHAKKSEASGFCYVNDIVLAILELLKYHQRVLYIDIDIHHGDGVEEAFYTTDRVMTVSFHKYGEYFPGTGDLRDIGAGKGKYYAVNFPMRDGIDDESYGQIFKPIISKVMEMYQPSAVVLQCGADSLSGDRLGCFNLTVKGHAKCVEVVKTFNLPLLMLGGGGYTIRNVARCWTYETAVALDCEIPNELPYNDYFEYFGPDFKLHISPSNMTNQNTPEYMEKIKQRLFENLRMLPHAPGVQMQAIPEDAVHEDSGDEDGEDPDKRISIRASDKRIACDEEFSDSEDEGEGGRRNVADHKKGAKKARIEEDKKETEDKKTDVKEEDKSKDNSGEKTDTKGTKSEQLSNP
Experimental: as §1, §2

PI3Kγ = PI3Kγ (Homo sapiens, UniProt P48736); assay: PI3Kγ enzyme activity inhibition IC50 evaluation assay (ADP-Glo Kinase Assay); type: biochemical; settings: ATP 25 μM, PIP2 50 μg/mL, 1 hour room temperature, read-out: PI3K-γ IC50
Experimental: as §3, §4

PI3Kβ = PI3Kβ (Homo sapiens, UniProt P42338); assay: PI3Kβ enzyme activity inhibition IC50 evaluation assay (ADP-Glo Kinase Assay); type: biochemical; settings: ATP 25 μM, PIP2 50 μg/mL, 1 hour room temperature, read-out: PI3K-β IC50
PI3Kβ, sequence (P42338 whole entry, species assumed): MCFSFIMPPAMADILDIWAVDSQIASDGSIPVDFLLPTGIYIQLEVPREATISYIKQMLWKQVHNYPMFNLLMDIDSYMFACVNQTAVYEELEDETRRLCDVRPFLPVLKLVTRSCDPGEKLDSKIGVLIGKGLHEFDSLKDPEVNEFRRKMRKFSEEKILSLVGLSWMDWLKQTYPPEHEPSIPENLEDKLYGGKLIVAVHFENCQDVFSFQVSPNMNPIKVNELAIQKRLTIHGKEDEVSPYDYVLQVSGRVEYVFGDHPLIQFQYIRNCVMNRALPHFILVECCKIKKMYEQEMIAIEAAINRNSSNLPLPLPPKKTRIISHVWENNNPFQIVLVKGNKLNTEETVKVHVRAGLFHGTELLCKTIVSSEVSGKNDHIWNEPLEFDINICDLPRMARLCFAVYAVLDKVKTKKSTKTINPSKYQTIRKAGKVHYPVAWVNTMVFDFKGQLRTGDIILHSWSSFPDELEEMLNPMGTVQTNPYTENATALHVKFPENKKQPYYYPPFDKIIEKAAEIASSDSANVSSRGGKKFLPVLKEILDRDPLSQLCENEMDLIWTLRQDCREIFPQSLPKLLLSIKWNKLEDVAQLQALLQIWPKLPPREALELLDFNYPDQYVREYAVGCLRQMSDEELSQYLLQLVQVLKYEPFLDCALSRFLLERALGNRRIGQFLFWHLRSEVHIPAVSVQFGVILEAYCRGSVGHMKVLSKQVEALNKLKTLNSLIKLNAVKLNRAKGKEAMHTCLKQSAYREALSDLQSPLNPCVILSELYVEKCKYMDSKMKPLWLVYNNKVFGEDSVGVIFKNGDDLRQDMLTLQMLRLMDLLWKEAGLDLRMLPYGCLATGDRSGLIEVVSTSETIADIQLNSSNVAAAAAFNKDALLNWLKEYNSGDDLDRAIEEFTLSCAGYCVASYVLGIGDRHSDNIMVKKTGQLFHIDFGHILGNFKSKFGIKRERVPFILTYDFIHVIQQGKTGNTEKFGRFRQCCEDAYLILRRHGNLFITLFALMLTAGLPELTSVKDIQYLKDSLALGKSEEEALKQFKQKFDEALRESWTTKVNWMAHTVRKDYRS
PI3Kβ, sequence (P27986 whole entry partner, species assumed): as the sequence (P27986 whole entry partner, species assumed) above
Experimental: as §3, §4

[1] = system: relapsed and/or refractory B-cell malignant hematologic neoplasms; settings: patients with relapsed and/or refractory B-cell malignant hematologic neoplasms, orally 80 mg once daily for 4 weeks; cited from earlier work

| IC50 (HDAC6) [nM] | IC50 (PI3Kδ) [nM] | IC50 (PI3Kα) [nM] | IC50 (HDAC1) [nM] | IC50 (HDAC2) [nM] | IC50 (PI3Kγ) [nM] | IC50 (PI3Kβ) [nM] | SMILES | clinical benefit in clinical studies [1] | safety profile in clinical studies [1] |
| --- | --- | --- | --- | --- | --- | --- | --- | --- | --- |
| 100 to 1000 | ≤ 10 | 1000 to 10000 | – | – | – | – | COc1ncc(-c2nc(N3CCOCC3)nc3c(CN4CCC(c5ccc(C(=O)NO)c(F)c5)CC4)cc(F)cc23)cc1NS(C)(=O)=O [Compound 18] | – | – |
| 100 to 1000 | ≤ 10 | 1000 to 10000 | – | – | – | – | COc1ncc(-c2nc(N3CCOCC3)nc3c(CN4CCC(c5c(F)cc(C(=O)NO)cc5F)CC4)cc(F)cc23)cc1NS(C)(=O)=O [Compound 19] | – | – |
| 100 to 1000 | ≤ 10 | 1000 to 10000 | – | – | – | – | COc1ncc(-c2nc(N3CCOCC3)nc3c(CN4CCC(c5cc(F)c(C(=O)NO)cc5F)CC4)cc(F)cc23)cc1NS(C)(=O)=O [Compound 20] | – | – |
| 1000 to 10000 | ≤ 10 | 100 to 1000 | – | – | – | – | COc1ncc(-c2nc(N3CCOCC3)nc3c(CN4CCC(C(C)(C)OCC(=O)NO)CC4)cc(F)cc23)cc1NS(C)(=O)=O [Compound 22] | – | – |
| 10 to 100 | ≤ 10 | 100 to 1000 | – | – | – | – | COc1ncc(-c2nc(N3CCOCC3)nc3c(CN4CCC(c5ccc(C(=O)NO)cc5)CC4)cc(F)cc23)cc1NS(C)(=O)=O [Compound 23] | – | – |
| 10 to 100 | 10 to 100 | 1000 to 10000 | – | – | – | – | CS(=O)(=O)Nc1cncc(-c2nc(N3CCOCC3)nc3c(CN4CCC(CCCC(=O)NO)CC4)cc(F)cc23)c1 [Compound 24] | – | – |
| 10 to 100 | 10 to 100 | 1000 to 10000 | – | – | – | – | COc1ncc(-c2nc(N3CCOCC3)nc3c(CN4CCC(CCCC(=O)NO)CC4)cc(F)cc23)cc1NS(=O)(=O)C1CC1 [Compound 25] | – | – |
| 10 to 100 | ≤ 10 | 100 to 1000 | – | – | – | – | COc1ncc(-c2nc(N3CCOCC3)nc3c(CN4CCC(CCCC(=O)NO)CC4)cc(F)cc23)cc1NS(=O)(=O)C(F)(F)F [Compound 26] | – | – |
| > 10000 | ≤ 10 | 100 to 1000 | – | – | – | – | COc1ncc(-c2nc(N3CCOCC3)nc3c(CN4CCC(CCNC(=O)NO)CC4)cc(F)cc23)cc1NS(C)(=O)=O [Compound 28] | – | – |
| 10 to 100 | ≤ 10 | – | ≤ 10 | – | – | – | COc1ncc(-c2nc(N3CCOCC3)nc3c(CNc4ncc(C(=O)NO)cc4F)cc(F)cc23)cc1NS(C)(=O)=O [Compound 35] | – | – |
| 10 to 100 | 10 to 100 | – | 100 to 1000 | – | – | – | COc1ncc(-c2nc(N3CCOCC3)nc3c(CNc4ccc(C(=O)NO)cc4F)cc(F)cc23)cc1NS(C)(=O)=O [Compound 36] | – | – |
| 100 to 1000 | 100 to 1000 | – | 1000 to 10000 | – | – | – | COc1ncc(-c2nc(N3CCOCC3)nc3c(OC4CCC(c5ccc(C(=O)NO)cc5F)CC4)cc(F)cc23)cc1NS(C)(=O)=O (stereo not drawn) [Compound 41] | – | – |
| 100 to 1000 | 10 to 100 | – | 1000 to 10000 | – | – | – | COc1ncc(-c2nc(N3CCOCC3)nc3c(OC4CCN(c5c(F)cc(C(=O)NO)cc5F)CC4)cc(F)cc23)cc1NS(C)(=O)=O [Compound 42] | – | – |
| 100 to 1000 | 10 to 100 | – | 1000 to 10000 | – | – | – | COc1ncc(-c2nc(N3CCOCC3)nc3c(CN4CCc5cc(C(=O)NO)cc(F)c5C4)cc(F)cc23)cc1NS(C)(=O)=O [Compound 43] | – | – |
| 10 to 100 | 10 to 100 | – | 100 to 1000 | 100 to 1000 | – | – | COc1ncc(-c2nc(N3CCOCC3)nc3c(OC4CCN(c5cc(C(=O)NO)no5)CC4)cc(F)cc23)cc1NS(C)(=O)=O [Compound 44] | – | – |
| 10 to 100 | 1000 to 10000 | – | 100 to 1000 | 1000 to 10000 | – | – | COc1ncc(-c2nc(N3CCOCC3)nc3c(OCc4ncc(C(=O)NO)cc4F)cc(F)cc23)cc1NS(C)(=O)=O [Compound 45] | – | – |
| > 10000 | ≤ 10 | 100 to 1000 | – | – | > 10000 | 100 to 1000 | COc1ncc(-c2nc(N3CCOCC3)nc3c(CN4CCC(C(C)(C)O)CC4)cc(F)cc23)cc1NS(C)(=O)=O [YY-20394, N-(5-(6-fluoro-8-((4-(2-hydroxypropyl-2-yl)piperidin-1-yl)methyl)-2-morpholine-quinazolin-4-yl)-2-methoxypyridin-3-yl)methanesulfonamide, reference compound] | clinical benefit | favorable safety profile |
